Source: US6949561B1, “Steroid 3-O-sulphamate derivatives as inhibitors of oestrone sulphatase” (Sterix Limited, priority 1997, dated 2005)

Tests used:
[1] = cited from earlier work
E1-STS enzyme = biological target: T1, E1-STS enzyme (Homo sapiens, UniProt P08842); details: prior art; cited from earlier work
T1 sequence (P08842 22-583): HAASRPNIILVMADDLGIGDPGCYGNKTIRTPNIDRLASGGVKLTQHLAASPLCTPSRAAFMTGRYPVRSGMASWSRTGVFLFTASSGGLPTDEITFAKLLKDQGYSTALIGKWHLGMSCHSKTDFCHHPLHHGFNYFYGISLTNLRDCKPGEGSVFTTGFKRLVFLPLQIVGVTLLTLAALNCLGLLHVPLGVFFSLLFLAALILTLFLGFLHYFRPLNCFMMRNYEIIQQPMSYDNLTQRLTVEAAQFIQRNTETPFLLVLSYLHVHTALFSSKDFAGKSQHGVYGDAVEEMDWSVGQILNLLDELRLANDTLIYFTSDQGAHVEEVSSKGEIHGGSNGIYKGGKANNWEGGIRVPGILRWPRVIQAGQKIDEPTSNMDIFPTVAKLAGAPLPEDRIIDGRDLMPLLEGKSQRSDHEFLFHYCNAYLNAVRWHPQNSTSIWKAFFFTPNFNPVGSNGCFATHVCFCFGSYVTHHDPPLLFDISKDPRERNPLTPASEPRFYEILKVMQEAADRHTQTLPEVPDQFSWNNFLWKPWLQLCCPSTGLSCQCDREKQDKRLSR

[2] = biological target: T2, Rat Liver Sulphatase (E1-STS) (Rattus norvegicus, UniProt P15589); experiment: In vivo inhibition (rat liver sulphatase); details: 2 mg/Kg/day × 5 days, oral dose
T2 construct: from tissue; host or cells: rat liver after oral dosing
T2 sequence (P15589 20-577): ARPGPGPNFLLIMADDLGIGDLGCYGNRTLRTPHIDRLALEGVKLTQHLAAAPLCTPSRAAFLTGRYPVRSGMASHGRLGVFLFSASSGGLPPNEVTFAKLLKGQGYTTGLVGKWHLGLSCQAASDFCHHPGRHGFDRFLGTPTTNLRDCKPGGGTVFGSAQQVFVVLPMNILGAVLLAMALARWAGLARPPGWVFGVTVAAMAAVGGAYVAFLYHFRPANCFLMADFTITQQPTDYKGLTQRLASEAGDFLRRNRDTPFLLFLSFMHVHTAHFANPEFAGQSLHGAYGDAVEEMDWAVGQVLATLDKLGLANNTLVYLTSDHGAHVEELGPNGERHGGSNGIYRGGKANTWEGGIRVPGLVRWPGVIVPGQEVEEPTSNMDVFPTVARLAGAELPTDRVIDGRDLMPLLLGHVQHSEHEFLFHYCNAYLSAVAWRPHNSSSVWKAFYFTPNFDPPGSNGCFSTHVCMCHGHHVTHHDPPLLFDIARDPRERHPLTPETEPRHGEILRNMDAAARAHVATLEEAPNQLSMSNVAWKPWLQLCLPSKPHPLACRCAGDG

[3] = biological target: T3, dehydroepiandrosterone sulphatase (DHA-STS) (Rattus norvegicus, UniProt P15589); details: administered either orally or subcutaneously; prior art; cited from earlier work
T3 construct: host or cells: rat liver (in vivo dosing)
T3 sequence (P15589 20-577): T2 sequence (P15589 20-577)

memory = details: rats; prior art; cited from earlier work
[4] = biological target: T2, Rat Liver Sulphatase (E1-STS); details: administered either orally or subcutaneously; prior art; cited from earlier work
[5] = biological target: T4, Steroid sulphatase (Steryl Sulphatase EC 3.1.6.2; E1-STS) in intact MCF-7 human breast cancer cells (Homo sapiens, UniProt P08842); details: 0.1 μM; known from prior art; cited from earlier work
T4 construct: endogenous in cells; host or cells: MCF-7 human breast cancer cells
T4 sequence (P08842 22-583): T1 sequence (P08842 22-583)

## C[C@]12CC[C@@H]3c4ccc(OS(=O)(=O)O)cc4CC[C@H]3[C@@H]1CCC2=O [Compound E1S, oestrone sulphate]
[1]
  half-life in blood: 10 to 12 h

## CC12CCC3c4ccc(OS(N)(=O)=O)cc4CCC3C1CCC2=O (stereo not drawn) [EMATE, oestrone-3-sulphamate]
E1-STS enzyme
  mode of E1-STS inhibition: time- and concentration-dependent manner
[2]
  In Vivo Inhibition (Rat Liver Sulphatase): 99.1±0.2%
[3]
  inhibition of rat liver DHA-STS activity: 99%
memory
  memory enhancing effect: memory enhancing effect
[4]
  inhibition of rat liver E1-STS activity: 99%
[5]
  inhibition of E1-STS activity in intact MCF-7 cells: more than 99%

## oestrone-3-N-sulphamate
E1-STS enzyme
  mode of E1-STS inhibition: weaker non-time-dependent inactivators

## oestrone-3-S-sulphamate
E1-STS enzyme
  mode of E1-STS inhibition: weaker non-time-dependent inactivators
